Data: patent US9090576B2, “2-substituted-p-quinone derivatives for treatment of oxidative stress diseases” (Edison Pharmaceuticals, Inc., priority 2008, dated 2015)

How the values were obtained:
Assay type in all cases: cell-based
[1] = tested on: human dermal fibroblasts from CoQ10 deficient patients; assay: Rescue of BSO-stressed fibroblasts from CoQ10 deficient patients (screen similar to Example A); details: Fibroblast, BSO-stressed fibroblasts from CoQ10 deficient patients harboring a CoQ2 mutation, less than about 150 nM, read-out: EC50, protection against CoQ10 deficiency
Method: (§1) A culture with FRDA fibroblasts was started from a 1 ml vial with approximately 500,000 cells stored in liquid nitrogen. Cells were propagated in 10 cm cell culture dishes by splitting every third day in a ratio of 1:3 until nine plates were available. Once confluent, fibroblasts were harvested. For 54 micro titer plates (96 well-MTP) a total of 14.3 million cells (passage eight) were re-suspended in 480 ml medium, corresponding to 100 μl medium with 3,000 cells/well. The remaining cells were distributed in 10 cm cell culture plates (500,000 cells/plate) for propagation. The plates were incubated overnight at 37° C. in an atmosphere with 95% humidity and 5% CO2 to allow attachment of the cells to the culture plate.
(§2) MTP medium (243 μl) was added to a well of the microtiter plate. The test compounds were unfrozen, and 7.5 μl of a 5 mM stock solution was dissolved in the well containing 243 μl medium, resulting in a 150 μM master solution. Serial dilutions from the master solution were made. The period between the single dilution steps was kept as short as possible (generally less than 1 second).
(§3) Plates were kept overnight in the cell culture incubator. The next day, 10 μl of a 10 mM BSO solution were added to the wells, resulting in a 1 mM final BSO concentration. Forty-eight hours later, three plates were examined under a phase-contrast microscope to verify that the cells in the 0% control (wells E1-H1) were clearly dead. The medium from all plates was discarded, and the remaining liquid was removed by gently tapping the plate inversed onto a paper towel.
(§4) 100 μl of PBS containing 1.2 μM Calcein AM were then added to each well. The plates were incubated for 50-70 minutes at room temperature. After that time the PBS was discarded, the plate gently tapped on a paper towel and fluorescence (excitation/emission wavelengths of 485 nm and 525 nm, respectively) was read on a Gemini fluorescence reader. Data was imported into Microsoft Excel (EXCEL is a registered trademark of Microsoft Corporation for a spreadsheet program) and used to calculate the EC50 concentration for each compound.
Compounds of the invention were tested using a screen similar to the one described in Example A, but substituting FRDA cells with cells obtained from CoQ10 deficient patients harboring a CoQ2 mutation. The compounds were tested for their ability to rescue human dermal fibroblasts from CoQ10 deficient patients from oxidative stress.

[2] = tested on: Human dermal fibroblasts from Friedreich's Ataxia patients; assay: Rescue of BSO-stressed FRDA fibroblasts (Calcein AM viability); details: BSO-stressed FRDA fibroblasts (GM04078), less than about 150 nM, read-out: EC50, protection against FRDA
How it was run: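 Patient FRDA fibroblasts (GM04078) seeded at 3,000 cells/well, given serially diluted compound from a 150 μM master solution, then stressed next day with 1 mM BSO.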

[3] = tested on: human dermal fibroblasts from LHON patients; assay: Rescue of BSO-stressed fibroblasts from LHON patients (screen as Example A); details: Fibroblast, BSO-stressed LHON fibroblasts (GM03858), less than about 150 nM, read-out: EC50, protection against LHON
How it was run: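 LHON patient fibroblasts (Coriell GM03858) at 3,000 cells/well were pre-treated overnight with compounds serially diluted from a 150 μM master solution. Surviving cells were stained with 1.2 μM Calcein AM for 50-70 min at RT and read by fluorescence (485/525 nm), giving EC50.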

[4] = tested on: human dermal fibroblasts from Huntington's patients; assay: Rescue of BSO-stressed fibroblasts from Huntington's patients (screen as Example A); details: Fibroblast, BSO-stressed Huntington's fibroblasts (GM 04281), less than about 150 nM, read-out: EC50, protection against Huntington's
How it was run: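 Coriell Huntington's line GM 04281 plated at 3,000 cells/well and attached overnight at 37 °C. Survival was read by Calcein AM (1.2 μM, 50-70 min, RT) fluorescence at 485/525 nm, giving EC50.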

[5] = tested on: human dermal fibroblasts from Parkinson's Disease patients; assay: Rescue of BSO-stressed fibroblasts from Parkinson's Disease patients (screen as Example A); details: Fibroblast, BSO-stressed Parkinson's Disease fibroblasts (AG20439), less than about 150 nM, read-out: EC50, protection against PD
Method: as §1, §2, §3, §4
Compounds of the invention were screened as described in Example A, but substituting FRDA cells with Parkinson's Disease (PD) cells obtained from the Coriell Cell Repositories (Camden, N.J.; repository number AG20439). The compounds were tested for their ability to rescue human dermal fibroblasts from Parkinson's Disease patients from oxidative stress.

Measured: EC50

COc1ccc(C2(C(=O)NCCC3=C(C)C(=O)C(C)=C(C)C3=O)CC2)cc1 [1-(4-methoxyphenyl)-N-(2-(2,4,5-trimethyl-3,6-dioxocyclohexa-1,4-dienyl)ethyl)cyclopropanecarboxamide]
< 150 nM: [1] | [2]

COc1ccccc1CC(=O)NCCC1=C(C)C(=O)C(C)=C(C)C1=O [2-(2-methoxyphenyl)-N-(2-(2,4,5-trimethyl-3,6-dioxocyclohexa-1,4-dienyl)ethyl)acetamide]
< 150 nM: [1] | [2]

CC1=C(C)C(=O)C(CCNC(=O)Cc2ccc(Cl)cc2)=C(C)C1=O [2-(4-chlorophenyl)-N-(2-(2,4,5-trimethyl-3,6-dioxocyclohexa-1,4-dienyl)ethyl)acetamide]
< 150 nM: [2] | [3] | [4] | [5]

CC1=C(C)C(=O)C(CCNC(=O)Cc2ccc(F)cc2)=C(C)C1=O [2-(4-fluorophenyl)-N-(2-(2,4,5-trimethyl-3,6-dioxocyclohexa-1,4-dienyl)ethyl)acetamide]
< 150 nM: [2] | [3] | [4] | [5]

CC1=C(C)C(=O)C(CCNC(=O)C(C)c2ccc(F)cc2)=C(C)C1=O (stereo not drawn) [2-(4-fluorophenyl)-N-(2-(2,4,5-trimethyl-3,6-dioxocyclohexa-1,4-dienyl)ethyl)propanamide]
< 150 nM: [1] | [2]

CC1=C(C)C(=O)C(CCC(C)C(=O)Nc2ccccn2)=C(C)C1=O (stereo not drawn) [2-methyl-N-(pyridin-2-yl)-4-(2,4,5-trimethyl-3,6-dioxocyclohexa-1,4-dienyl)butanamide]
< 150 nM: [2] | [3] | [4] | [5]

CC1=C(C)C(=O)C(CCNC(=O)N2CCN(Cc3ccccc3)CC2)=C(C)C1=O [4-benzyl-N-(2-(2,4,5-trimethyl-3,6-dioxocyclohexa-1,4-dienyl)ethyl)piperazine-1-carboxamide]
< 150 nM: [2] | [3] | [4] | [5]

CC1=C(C)C(=O)C(CCNS(=O)(=O)c2ccc(F)cc2)=C(C)C1=O [4-fluoro-N-(2-(2,4,5-trimethyl-3,6-dioxocyclohexa-1,4-dienyl)ethyl)benzenesulfonamide]
< 150 nM: [2] | [3] | [4] | [5]

COc1ccc(S(=O)(=O)NCCC2=C(C)C(=O)C(C)=C(C)C2=O)cc1 [4-methoxy-N-(2-(2,4,5-trimethyl-3,6-dioxocyclohexa-1,4-dienyl)ethyl)benzenesulfonamide]
< 150 nM: [2] | [3] | [4] | [5]

CC1=C(C)C(=O)C(CCCC(=O)Nc2cccc(Cl)c2Cl)=C(C)C1=O [N-(2,3-dichlorophenyl)-4-(2,4,5-trimethyl-3,6-dioxocyclohexa-1,4-dienyl)butanamide]
< 150 nM: [2] | [3] | [4] | [5]

CC1=C(C)C(=O)C(CCCC(=O)Nc2cc(Cl)ccc2Cl)=C(C)C1=O [N-(2,5-dichlorophenyl)-4-(2,4,5-trimethyl-3,6-dioxocyclohexa-1,4-dienyl)butanamide]
< 150 nM: [2] | [3] | [4] | [5]

CC1=C(C)C(=O)C(CCCC(=O)Nc2cc(F)ccc2F)=C(C)C1=O [N-(2,5-difluorophenyl)-4-(2,4,5-trimethyl-3,6-dioxocyclohexa-1,4-dienyl)butanamide]
< 150 nM: [2] | [3] | [4] | [5]

CC1=C(C)C(=O)C(CCCC(=O)Nc2c(Cl)cccc2Cl)=C(C)C1=O [N-(2,6-dichlorophenyl)-4-(2,4,5-trimethyl-3,6-dioxocyclohexa-1,4-dienyl)butanamide]
< 150 nM: [2] | [3] | [4] | [5]

CC1=C(C)C(=O)C(CCCC(=O)Nc2c(F)cccc2F)=C(C)C1=O [N-(2,6-difluorophenyl)-4-(2,4,5-trimethyl-3,6-dioxocyclohexa-1,4-dienyl)butanamide]
< 150 nM: [2] | [3] | [4] | [5]

CC1=C(C)C(=O)C(CCCC(=O)Nc2ccc(Cl)c(Cl)c2)=C(C)C1=O [N-(3,4-dichlorophenyl)-4-(2,4,5-trimethyl-3,6-dioxocyclohexa-1,4-dienyl)butanamide]
< 150 nM: [2] | [3] | [4] | [5]

CC1=C(C)C(=O)C(CCCC(=O)Nc2ccc(F)c(F)c2)=C(C)C1=O [N-(3,4-difluorophenyl)-4-(2,4,5-trimethyl-3,6-dioxocyclohexa-1,4-dienyl)butanamide]
< 150 nM: [2] | [3] | [4] | [5]

CC1=C(C)C(=O)C(CCCC(=O)Nc2cc(F)cc(F)c2)=C(C)C1=O [N-(3,5-difluorophenyl)-4-(2,4,5-trimethyl-3,6-dioxocyclohexa-1,4-dienyl)butanamide]
< 150 nM: [2] | [3] | [4] | [5]

COc1ccc(NC(=O)CCCC2=C(C)C(=O)C(C)=C(C)C2=O)cc1 [N-(4-methoxyphenyl)-4-(2,4,5-trimethyl-3,6-dioxocyclohexa-1,4-dienyl)butanamide]
< 150 nM: [2] | [3] | [4] | [5]

CC1=C(C)C(=O)C(CCCC(=O)Nc2ccccn2)=C(C)C1=O [N-(pyridin-2-yl)-4-(2,4,5-trimethyl-3,6-dioxocyclohexa-1,4-dienyl)butanamide]
< 150 nM: [2] | [3] | [4] | [5]

CC1=C(C)C(=O)C(CCCC(=O)Nc2ccncc2)=C(C)C1=O [N-(pyridin-4-yl)-4-(2,4,5-trimethyl-3,6-dioxocyclohexa-1,4-dienyl)butanamide]
< 150 nM: [2] | [3] | [4] | [5]

CC1=C(C)C(=O)C(CCC(C)C(=O)NCc2ccccc2)=C(C)C1=O (stereo not drawn) [N-benzyl-2-methyl-4-(2,4,5-trimethyl-3,6-dioxocyclohexa-1,4-dienyl)butanamide]
< 150 nM: [2] | [3] | [4] | [5]
